Source: paper PMC5600443 (Biochemistry and Biophysics Reports, 2016)
Values joined by “and” are separate entries in the source; they are usually repeats but may differ in a detail not shown here. Equal entries are not always repeated.

What was measured:
Assay type in all cases: cell-based
[1] = test system: RH-35 rat liver cancer cell line; assay: MTT assay, inhibition of proliferation of RH-35 rat liver cancer cells; conditions: read-out: Cell proliferation RH-35 IC50, rat RH-35 cells, 72 h, average of 3 independent experiments + SEM
[2] = molecular target: rat α1/β1 (Rα1/β1) Na^+,K^+pump (Rattus norvegicus, UniProt P06685); conditions: for Efficiency coefficient A = 100*IC50 Na,K pump/IC50 proliferation, Rα1/β1 pump: Rα1/β1 pump IC50 versus RH-35 cell proliferation IC50
[3] = molecular target: rat α2/β1 (Rα2/β1) Na^+,K^+pump (Rattus norvegicus, UniProt P06686); conditions: Rα2/β1 pump IC50 versus RH-35 cell proliferation IC50

Molecule	IC50 [1]	Effect on Rα1/β1 pump current ([2]; 0.05 µM drug)	Inhibition of Rα1/β1 pump current ([2]; 0.50 µM drug)	Efficiency coefficient A = 100*IC50 Na,K pump/IC50 proliferation, Rα1/β1 pump [2]	Efficiency coefficient A = 100*IC50 Na,K pump/IC50 proliferation, Rα2/β1 pump [3]
CC12CCC(OC(=O)NCCCn3ccnc3)CC1CCC1C2CCC2(C)C(c3ccc(=O)oc3)CCC12O (centres unmarked) [BF238, Bufalin-3-yl [3-(1h-imidazol-1-yl)propyl]carbamate]	37.4 ± 3.1 µM	hardly affected	more than 50%	0.88	2.64
CNCCCNC(=O)O[C@H]1CC[C@@]2(C)[C@H](CC[C@@H]3[C@@H]2CC[C@]2(C)[C@@H](c4ccc(=O)oc4)CC[C@]32O)C1 [BF601, Bufalin-3-yl [3-(methylamino)propyl]carbamate]	~30.8 µM and 30.8 µM			0.35	0.92
Bufalin-3-MeON-arabinopyranoside [BAP]	~67.2 µM and 67.2 µM			0.10	0.16
